This experiment has as its system fungus tyrosinase. The experiment is described as follows: in vitro inhibition test of the activity of tyrosinase (dopachrome formation, 475 nm). The format is biochemical. The following applies: inhibitor at 50 molar percent relative to tyrosine; 0.1M phosphate buffer pH 6.5; 25° C.; optical density at 475 nm at plateau. The source says: Certain ones of the benzofuran derivatives have been comparatively studied with respect to hydroquinone, at molar equivalent amounts, in the in vitro inhibition test of the activity of tyrosinase.
According to this test the amount of dopachrome formed during the course of the reaction chain for the transformation of tyrosine into melanins is followed by visible spectrometry at 475 nm. These reactions are catalyzed, in vitro, by fungus tyrosinase, in the presence of a reducing co-substrate(for example, L-dopa in a small amount) to initiate the hydroxylation reaction of L-tyrosine into L-dopa, which is then catalytically oxidized into dopaquinone, then into dopachrome, produced intermediate before the non-enzymatic oxidation reactions terminating in the formation of melanins.
The concentration of dopachrome formed during the course of time in the presence and in the absence of the inhibitor is then measured.
The concentrations of inhibitors are fixed at 50 molar percent relative to the tyrosine concentration in the reaction medium.
The inhibition effect is expressed by the reduction of the maximum amount of dopachrome formed (optical density value at 475 nm read at the plateau of the curve) relative to the amount obtained in the absence of inhibitor.
A--0.1M phosphate buffer pH=6.5 (TWEEN 20 at 1%)
B--L-tyrosine mother solution at 2×10^-3 M in A
C--L-dopa mother solution at 10^-4 M in A
D--Fungus tyrosinase mother solution at 2,400 units/ml in A
E--Inhibitor mother solution at 10^-2 M in A (solutions C and D are prepared the same day).
Homogenize and equilibrate at 25° C.
rapidly mix and observe the kinetics by the measurement of the absorbance at 475 nm as a function of time.
Take `Oc1ccc2ccoc2c1`: the “% inhibitor (reduction of the maximum amount of dopachrome formed relative to the amount obtained in the absence of inhibitor)” value was 54%.
Turning to `Oc1ccc2occc2c1`, the “% inhibitor (reduction of the maximum amount of dopachrome formed relative to the amount obtained in the absence of inhibitor)” value is reported as 56%.
As for `Oc1ccc2c(c1)OCC2`, the “% inhibitor (reduction of the maximum amount of dopachrome formed relative to the amount obtained in the absence of inhibitor)” value is on record as 66%.
As for `Oc1ccc(O)cc1` [hydroquinone, reference compound], the “% inhibitor (reduction of the maximum amount of dopachrome formed relative to the amount obtained in the absence of inhibitor)” value was found to be 33%.

The record behind these values is patent US5730962A, “Depigmenting cosmetic or dermatologic composition containing a benzofuran derivative and its use in depigmentating skin” (L'Oreal, priority 1991, dated 1998).
